The source of these data is PMC6264179, “Triterpenoids from the Roots of Sanguisorba tenuifolia var. Alba” (Molecules, 2011).

The structures appear in SMILES notation.

In the assay the target is α-Glucosidase (EC.3.2.1.20). In words: α-Glucosidase inhibition assay (p-nitrophenyl-α-D-glucopyranoside substrate, absorbance at 405 nm). The conditions noted are these: in vitro; pH 6.8 phosphate buffer, 37 °C, 15 min; acarbose positive control; read-out: IC50 (mM ± SEM, mM), α-glucosidase inhibitory activity. It counts as biochemical. The protocol:
Open column chromatography (CC) was carried out using silica gel (200-300 mesh, Qingdao Marine Chemical Co., Qingdao, China) or octadecyl silica gel (ODS, 25-40 μm, Fuji) as stationary phases. TLC employed precoated silica gel plates (5-7 μm, Qingdao Marine). Preparative HPLC was carried out on a Waters 600 instument equipped with a Waters UV-2487 detector. A Waters Sunfire prep C18 OBD (19 × 250 mm i.d.) column was used for this purpose. The IR spectra were recorded as KBr pellets on a Jasco 302-A spectrometer. Optical rotation was recorded on a Jasco P-2000 polarimeter. HRESIMS were measured on a FTMS-7 instrument (Bruker Daltonics). Melting points were determined on a Gallenkemp apparatus and are uncorrected. The ^1H-, ^13C- and 2D (^1H-^1H COSY, HSQC, HMBC, NOESY) NMR spectra were recorded on a Bruker AMX-400 spectrometer using standard pulse sequences. Chemical shifts are reported in ppm (δ), and scalar coupling are reported in Hz. GC analyses were carried out using a Fuli 9790 instrument equipped with a DM-5 column (0.25 μm, 30 m × 0.25 mm, Dikma, China). α-Glucosidase (EC.3.2.1.20) from Saccharomyces sp. was purchased from Wako Pure Chemical Indutries Ltd. (Wako 076-02841). Other reagents were purchased from various commercial sources.
α-Glucosidase (EC.3.2.1.20) enzyme inhibition assay has been performed according to the literature. α-Glucosidase (25 μL, 0.2 U/mL), various concentrations of samples (25 μL), and 67 mM phosphate buffer (pH 6.8, 175 μL) were mixed at room temperature for 10 min. Reactions were initiated by the addition of 23.2 mM p-nitrophenyl-α-D-glucopyranoside (25 μL). The reaction mixtures were incubated at 37 °C for 15 min in a final volume of 250 μL, and then 1 M Na2CO3 (50 μL) was added to the incubation solution to stop the reaction. The activities of glucosidase were detected in a 96-well plate, and the absorbance was read at 405 nm by a microplate spectrophotometer (Spectra Max, Molecular Devices, USA). The negative control was prepared by adding phosphate buffer instead of the sample in the same way as the test. […] The blank was prepared by adding phosphate buffer instead of α-glucosidase using the same method. The inhibition rates (%) were calculated from the following formula:
[(ODnegative control− ODblank) − (ODtest− ODtest blank)] / ([…]− ODblank) × 100%

Consider `CC1(C)CCC2(C(=O)OC3OC(CO)C(O)C(O)C3O)CCC3(C)C(=CCC4C5(C)CC(=O)C(O)C(C)(C)C5CCC43C)C2C1O` [Compound 1, 2-oxo-3β,19α-dihydroxyolean-12-en-28-oic acid β-D-gluco-pyranosyl ester], for which the IC50 was 1.88 ± 0.28 mM.
In the case of `C[C@@H]1CC[C@]2(C(=O)O)CC[C@]3(C)C(=CCC4[C@@]5(C)CC(=O)[C@H](O)C(C)(C)C5CC[C@]43C)C2[C@@]1(C)O` (some centres unmarked) [Compound 2, 2-oxopomolic acid], the IC50 turned out to be 1.35 ± 0.04 mM.
`C[C@@H]1CC[C@]2(C(=O)O[C@@H]3O[C@H](CO)[C@@H](O)[C@H](O)[C@H]3O)CC[C@]3(C)C(=CCC4[C@@]5(C)CC(=O)[C@H](O)C(C)(C)C5CC[C@]43C)C2[C@@]1(C)O` (stereo partly drawn) [Compound 3, 2-oxopomolic acid β-D-glucopyranoside]: the IC50 worked out at 2.22 ± 0.06 mM.
Under `CC1CCC2(C(=O)OC3OC(CO)C(O)C(O)C3O)CCC3(C)C(=CCC4C5(C)CC(O)C(=O)C(C)(C)C5CCC43C)C2C1(C)O` [Compound 4, 2α,19α-dihydroxy-3-oxo-12-ursen-28-oic acid β-D-glucopyranosyl ester] stands 1.56 ± 0.04 mM; under `C[C@@H]1CC[C@]2(C(=O)O)CC[C@]3(C)C(=CCC4[C@@]5(C)C[C@@H](O)C(=O)C(C)(C)C5CC[C@]43C)C2[C@@]1(C)O` (stereo partly drawn) [Compound 5, 2α,19α-dihydroxy-3-oxo-12-ursen-28-oic acid], 1.23 ± 0.09 mM; under `CC1(C)C(=O)[C@H](O)C[C@@]2(C)C1CC[C@]1(C)C2CC=C2C3[C@@H](O)C(C)(C)CC[C@]3(C(=O)O[C@@H]3O[C@H](CO)[C@@H](O)[C@H](O)[C@H]3O)CC[C@]21C` (stereo partly drawn) [Compound 6, 2α,19α-dihydroxy-3-oxo-olean-12-en-28-oic acid β-D-glucopyranosyl ester], 2.01 ± 0.06 mM.
Consider `C[C@@H]1CC[C@]2(C(=O)O[C@@H]3O[C@H](CO)[C@@H](O)[C@H](O)[C@H]3O)CC[C@]3(C)C(=CCC4[C@@]5(C)C[C@@H](O)[C@H](O)C(C)(C)C5CC[C@]43C)C2[C@@]1(C)O` (some centres unmarked) [Compound 7, rosamutin], for which the IC50 was 3.28 ± 0.08 mM.
Under `C[C@@H]1CC[C@]2(C(=O)O)CC[C@]3(C)C(=CC[C@@H]4[C@@]5(C)C[C@@H](O)[C@@H](O)C(C)(C)[C@@H]5CC[C@]43C)[C@@H]2[C@]1(C)O` [Compound 8, euscaphic acid] stands 0.67 ± 0.09 mM; under `C[C@@H]1CC[C@]2(C(=O)O[C@@H]3O[C@H](CO)[C@@H](O)[C@H](O)[C@H]3O)CC[C@]3(C)C(=CCC4[C@@]5(C)C[C@@H](O)[C@@H](O)C(C)(C)C5CC[C@]43C)C2[C@@]1(C)O` (some centres unmarked) [Compound 9, kaji-ichigoside Fl], 3.1 ± 0.24 mM; under `CC1(C)CC[C@]2(C(=O)O[C@@H]3O[C@H](CO)[C@@H](O)[C@H](O)[C@H]3O)CC[C@]3(C)C(=CCC4[C@@]5(C)C[C@@H](O)[C@H](O)C(C)(C)C5CC[C@]43C)C2[C@H]1O` (some centres unmarked) [Compound 10, 24-deoxysericoside], 3.52 ± 0.16 mM.
Under `C[C@@H]1CC[C@]2(C(=O)O)CC[C@]3(C)C(=CCC4[C@@]5(C)CC[C@H](OC(=O)C=Cc6ccc(O)cc6)C(C)(C)C5CC[C@]43C)C2[C@@H]1C` (some centres unmarked) [Compound 12, p-coumaroylursolic acid] stands 0.62 ± 0.06 mM.
Under `CC1CCC2(C(=O)OC3OC(CO)C(O)C(O)C3O)CCC3(C)C(=CCC4C5(C)CCC(OC6OCC(O)C(O)C6O)C(C)(C)C5CCC43C)C2C1(C)O` (centres unmarked) [Compound 13, ziyu-glycoside I] stands 3.62 ± 0.21 mM.
Take `C=C1C(C)CCC2(C(=O)OC3OC(CO)C(O)C(O)C3O)CCC3(C)C(=CCC4C5(C)CCC(OC6OCC(O)C(O)C6O)C(C)(C)C5CCC43C)C12` [Compound 14, 3β-[(α-L-arabinopyranosyl)oxy] urs-12,19(29)-dien-28-oic acid 28-β-D-glucopyranosyl ester]: the IC50 was 2.87 ± 0.06 mM.
In the case of `C[C@@H]1CC[C@]2(C(=O)O)CC[C@]3(C)C(=CC[C@@H]4[C@@]5(C)CC[C@H](O)C(C)(C)[C@@H]5CC[C@]43C)[C@@H]2[C@]1(C)O` [Compound 15, pomolic acid], the IC50 stood at 1.84 ± 0.12 mM.
